In patent publication US20250195482A1, “METHOD AND COMPOSITION FOR IMPROVING HEALTH OF HAIR FOLLICLES, SCALP OR HAIR OF MAMMALS” (NANJING NUTRABUILDING BIO-TECH CO., LTD., priority 2022, published 2025):

Experiments:
Format in all cases: cell-based
Staphylococcus aureus = test: Growth inhibition of Staphylococcus aureus (optical density); settings: 1000 μM DHB, 530 nm, 48 h shaking at 30° C.; control 2.1
Protocol: (§1) Growth inhibition of M. globosa, M. restricta, Propionibacterium acnes, Staphylococcus aureus and Staphylococcus epidermidis was tested using 50-ml tubes with 10 ml of mDixon medium. Cultures were inoculated to an optical density (OD) of 0.2, the above microorganisms were loaded into each culture dish, and challenged with test material (control and DHB with different concentrations: 0.001 μM, 0.01 μM, 0.1 μM, 1 μm, 10 μM, 100 μM and 1000 μM). After 48 h of shaking at 30° C., the OD was measured by spectrophotometer and recorded.

M. restricta = test: Growth inhibition of M. restricta (optical density); settings: 1000 μM DHB, 600 nm, 48 h shaking at 30° C., mDixon medium; control 6.5
Protocol: as §1

M. globosa = test: Growth inhibition of M. globosa (optical density); settings: 1000 μM DHB, 600 nm, 48 h shaking at 30° C., mDixon medium; control 4.1
Protocol: as §1

[1] = system: Staphylococcus epidermidis; test: Growth inhibition of Staphylococcus epidermidis (optical density); settings: 1000 μM DHB, 530 nm, 48 h shaking at 30° C.; control 1.8
Protocol: as §1

Propionibacterium acnes = test: Growth inhibition of Propionibacterium acnes (optical density); settings: 1000 μM DHB, 530 nm, 48 h shaking at 30° C.; control 2.6
Protocol: as §1

COc1ccc2c(c1OC)CN1CCc3cc4c(cc3C1=C2)OCO4 [DHB, Dihydroberberine]
optical density of Staphylococcus aureus (Staphylococcus aureus): 0.3 | optical density of M. restricta (M. restricta): 1.1 | optical density of M. globosa (M. globosa): 0.2 | optical density of Staphylococcus epidermidis [1]: 0.3 | optical density of Propionibacterium acnes (Propionibacterium acnes): 0.9
